This assay addresses T1, human TAS1R2-R317G (subunit alone) (Homo sapiens, UniProt Q8TE23, R317G).
T1 construct: expressed in transfected cells; host or cells: HEK293T-Gα16gust44
T1 sequence (Q8TE23 20-839 R317G): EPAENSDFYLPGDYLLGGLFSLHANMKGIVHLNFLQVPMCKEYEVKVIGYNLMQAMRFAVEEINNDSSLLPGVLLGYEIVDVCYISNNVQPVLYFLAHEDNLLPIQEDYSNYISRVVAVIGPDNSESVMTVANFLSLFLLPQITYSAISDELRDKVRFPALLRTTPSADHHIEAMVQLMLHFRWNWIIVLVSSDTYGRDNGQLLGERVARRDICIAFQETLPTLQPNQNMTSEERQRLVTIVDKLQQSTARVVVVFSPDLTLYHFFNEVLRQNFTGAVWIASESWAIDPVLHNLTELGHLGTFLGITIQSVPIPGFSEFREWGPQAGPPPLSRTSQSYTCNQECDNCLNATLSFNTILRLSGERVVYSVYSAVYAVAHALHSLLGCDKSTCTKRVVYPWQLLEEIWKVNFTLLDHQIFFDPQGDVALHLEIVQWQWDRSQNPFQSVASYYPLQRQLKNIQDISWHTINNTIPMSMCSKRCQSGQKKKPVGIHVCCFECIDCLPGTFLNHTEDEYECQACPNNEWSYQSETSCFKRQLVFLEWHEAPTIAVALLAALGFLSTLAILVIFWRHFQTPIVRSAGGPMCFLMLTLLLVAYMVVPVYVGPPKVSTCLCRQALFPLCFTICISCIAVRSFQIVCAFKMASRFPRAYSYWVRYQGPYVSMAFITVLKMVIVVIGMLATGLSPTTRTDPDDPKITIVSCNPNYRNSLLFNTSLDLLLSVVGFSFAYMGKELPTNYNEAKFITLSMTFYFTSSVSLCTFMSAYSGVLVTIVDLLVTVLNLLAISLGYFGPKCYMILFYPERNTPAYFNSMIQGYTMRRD
Put plainly: Calcium mobilisation assay, TAS1R2-R317G subunit alone. It is filed as cell-based. From the text: The coding sequences for TAS1R2 and TAS1R3 were commercially synthesised, and the human codon was optimised for expression in human cells. The coding sequences of human TAS1R2 and TAS1R3 were subcloned and inserted into the mammalian expression vectors pcDNA6/myc-HisA and pcDNA4/myc-HisA (Invitrogen; Thermo Fisher Scientific; Illkirch, France) between the EcoRI and NotI restriction sites, generating the plasmids pcDNA6-TAS1R2 and pcDNA4-TAS1R3, respectively. To increase protein expression in mammalian cells, an upstream start codon was used, which was a sequence called MAX, corresponding to the QBI SP163 element also described in pcDNA4-HisMax (Invitrogen; Thermo Fisher Scientific; Illkirch, France). To measure the expression level of the receptor by immunohistochemistry, we used the FLAG sequence ([…]) in the C-terminal position, which encodes the FLAG tag epitope. […]
The HEK293T cells were kindly provided by Jay P. Slack (Givaudan Flavors Corporation; Cincinnati, OH, USA). […] The fluorescence intensity was measured for 90 s (excitation 488 nm, emission 510 nm) in an automated fluorometric FlexStation®3 Multi-Mode microplate reader (Molecular Devices; San Jose, CA, USA). […] The Ca^2+ changes were expressed as fractional changes in fluorescent light intensity: ΔF/F = (F − F0)/F0, where F was the fluorescent light intensity at each point, and F0 was the value of emitted fluorescent light prior to stimulus application. To calculate dose–response relationships, the changes in fluorescence upon stimulus application were averaged, mock-subtracted and baseline-corrected. […] The half-maximal effective concentrations (EC50 values) and maximal signal amplitudes were calculated using SigmaPlot software (version 15.0) (Systat Software; San Jose, CA, USA).
For in vitro calcium mobilisation assay performed on hTAS1R2-SNPs, hTAS1R3-SNPs and mTAS1R3-I60T, 6 to 7 concentrations were tested for each sweet compound, plus buffer alone. All concentration–receptor combinations were measured in duplicate, and each experiment was repeated at least 4 times (8 wells/concentration). […]

As for `C=C(C)[C@@H]1CC=C(/C=N/O)CC1` [Perillartine, perillartine], the EC50 was determined as 225 ± 31.9 µM and the “R1 = Variant EC50/WT EC50” value is given as 2.5. For the same compound, the “Max ΔF/F0” value (maximal signal amplitude) worked out at 0.17 ± 0.01.

The values are drawn from paper PMC11945486, “TAS1R2/TAS1R3 Single-Nucleotide Polymorphisms Affect Sweet Taste Receptor Activation by Sweeteners: The SWEET Project” (Nutrients, 2025).
